Measured values taken from US6172052A, “17β-acyl-17α-propynyl-11β-arylsteroids and their derivatives having agonist or antagonist hormonal properties” (Research Triangle Institute, priority 1998, dated 2001).

Legend:
[1] = system: estrogen-primed, progesterone-stimulated immature female rabbits; experiment: In vivo antiprogestational activity, uterine endometrial effects scored according to McPhail; design: species or system rabbit; conditions: oral
Protocol: In vivo Test. Antiprogestational activity was determined in vivo by dose-response studies in estrogen-primed, progesterone-stimulated immature female rabbits and results were scored according to McPhail (McPhail, J. Physiol., 83: 146 (1934)). These are standard procedures well-known to those skilled in the art. For determining antiprogestational (antagonist) activity, the test compound was given orally together with subcutaneous administration of progesterone. It was tested orally at 0.5, 1 and 2 mg total dose in estrogenprimed immature female rabbits that were simultaneously given subcutaneous progesterone. The rabbits, weighing about 1.5 kg, were primed with estrogen one a day for 6 days and then treated once a day for 5 days with 0.8 mg total dose of progesterone--i.e.160 μg/day--while at the same time giving the test compound orally once a day in a vehicle of 10% ethanol/sesame oil (0.5 mL volume). Necropsy was performed one day after the last dose. Uterine endometrial effects were scored according to McPhail and potency was evaluated by statistical comparison with the standard compound
17α-acetoxy-11β-[4-(N,N-dimethylamino)phenyl]-19-norpregna-4,9-diene-3,20-dione.

progestin receptor = experiment: Receptor binding: relative binding activity (RBA) for progestin receptor, competition with 3H-R5020 in T-47D cells; conditions: T-47D human breast carcinoma cells; ratio of concentrations causing 50% displacement of 3H-R5020; percentage of reference standard R-5020
Protocol: Receptor Binding. The affinity of the compounds for hormone receptors was determined by standard procedures similar to those that have been described, inter alia, by Wagner et al., Proc. Natl. Acad. Sci., 93, 8739-8744 (1996) for COS-1 cells. The human breast carcinoma (T-47D) cell line was used to assess RBA for progestin receptor. The cell line used was obtained from ATCC (American Type Culture Collection) and stored frozen at -135° C. until a week before the assays were conducted. The cells were thawed and cultured to achieve the desired cell number (5 to 7 days on average). […] After incubation overnight, medium was removed, the cells were washed and solubilized and radioactivity was measured by liquid scintillation spectromctry. Nonspecific binding was determined by incubation with an excess of unlabeled R5020 and subtracted from total binding to calculate specific binding. […]
The percentage of specifically bound ^3 H-R5020 for each concentration tested was calculated and binding curves were generated by plotting the percentage of specifically bound ^3 H-R-5020 versus the concentration of the competitor. The relative binding activity (RBA) of the test compounds, relative to the reference standard (R5020) as well as the internal standard, was determined from the ratio of concentrations causing 50% displacement for each unknown and standard, and expressed as a percentage value. […]

[2] = from C. E. Cook et al, Human Reproduction, 9, Supplement 1, 32-39, June 1994; cited from earlier work

| Structure (SMILES) | antiprogestational potency relative to the standard compound ([1]; once a day for 5 days with subcutaneous progesterone, McPhail score, standard = 17α-acetoxy-11β-[4-(N,N-dimethylamino)phenyl]-19-norpregna-4,9-diene-3,20-dione) [fold] | antiprogestational potency relative to mifepristone ([1]; worked out from 5-fold versus standard and standard 3-fold versus mifepristone) [fold] | RBA (relative binding activity) relative to R-5020 (progestin receptor) [%] | antiprogestational activity (in words) ([1]; estrogen-primed, progesterone-stimulated immature female rabbits) | antiprogestational potency relative to mifepristone [2] |
| --- | --- | --- | --- | --- | --- |
| CC#C[C@]1(C(C)=O)CC[C@H]2[C@@H]3CCC4=CC(=O)CCC4=C3[C@@H](c3ccc(N(C)C)cc3)C[C@@]21C [A-1, 11β-[4-(N,N-Dimethylamino)phenyl]-17α-(1-propynyl)-19-norpregna-4,9-diene-3,20-dione] | 5 | ≤ 15 | 313 |  |  |
| CC#C[C@]1(C(C)=O)CC[C@H]2[C@@H]3CCC4=CC(=O)CCC4=C3[C@@H](c3ccc(C(C)=O)cc3)C[C@@]21C [A-16, 11β-(4-Acetylphenyl)-17α-(1-propynyl)-19-norpregna-4,9-diene-3,20-dione] |  |  | 439 | had antiprogestational activity |  |
| CC(=O)O[C@]1(C(C)=O)CC[C@H]2[C@@H]3CCC4=CC(=O)CCC4=C3[C@@H](c3ccc(N(C)C)cc3)C[C@@]21C [standard compound, 17α-acetoxy-11β-[4-(N,N-dimethylamino)phenyl]-19-norpregna-4,9-diene-3,20-dione] |  |  |  |  | approximately 3 fold |
